Patent US8501755B2, “Tetrahydropyridothienopyrimidine compounds and methods of use thereof” (Bayer Intellectual Property GmbH, priority 2006, dated 2013)

Key:
Type in all cases: cell-based
N87 = experiment: In vitro tumor cell proliferation assay (Cell Titer-Glo) in N87 cells; details: N87 human gastric carcinoma overexpressing HER2 and HER1; 72 hours exposure; read-out: IC50, activities in N87 cell lines
Procedure, shortened: (§1)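 Viability after 72 h drug exposure at 37 °C was read as CellTiter-Glo ATP luminescence, giving IC50. Cells (2.5×10^3/well, RPMI + 10% FBS) were compound-treated one day post-seeding, 0.1% DMSO final: A431 overexpresses HER1, N87 overexpresses HER2 and HER1.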

H1975 cells = experiment: In vitro tumor cell proliferation assay (Cell Titer-Glo) in H1975 cells; details: NCI-H1975; H1975 human NSCLC expressing mutant HER1 (L858R,T790M); 72 hours exposure; read-out: IC50, activities in H 1975 cell lines
Procedure, shortened: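 After 72 h compound exposure at 37° C (top 10 uM down to 64 pM, 0.1% DMSO), viability of EGFR L858R/T790M-mutant H1975 cells was read as ATP luminescence.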

A431 cells = experiment: In vitro tumor cell proliferation assay (Cell Titer-Glo) in A431 cells; details: Homo sapiens, A-431, 72 h, A431 human epidermoid carcinoma overexpressing HER1; 72 hours exposure; read-out: IC50, activities in A431 cell lines
Procedure, shortened: as §1

| IC50 (N87) | IC50 (H1975 cells) | IC50 (A431 cells) | SMILES |
| --- | --- | --- | --- |
| < 0.2 µM | 0.2 to 1 µM | 0.2 to 1 µM | CN(C)CC#CC(=O)N1CCc2c(sc3ncnc(Nc4ccc(F)c(Cl)c4)c23)C1 [Example 134, N-(3-chloro-4-fluorophenyl)-7-[4-(dimethylamino)but-2-ynoyl]-5,6,7,8-tetrahydropyrido [4′,3′:4,5]thieno[2,3-d]pyrimidin-4-amine] |
| < 0.2 µM | < 0.2 µM | 0.2 to 1 µM | CN(C)CC#CC(=O)N1CCc2c(sc3ncnc(Nc4ccc(OCc5ccccn5)c(Cl)c4)c23)C1 [Example 135, N-[3-chloro-4-(pyridin-2-ylmethoxy)phenyl]-7-[4-(dimethylamino)but-2-ynoyl]-5,6,7,8-tetrahydropyrido [4′,3′:4,5]thieno[2,3-d]pyrimidin-4-amine] |
| < 0.2 µM | 0.2 to 1 µM | 0.2 to 1 µM | O=C(C#CCCN1CCCCC1)N1CCc2c(sc3ncnc(Nc4ccc(F)c(Cl)c4)c23)C1 [Example 140, N-(3-chloro-4-fluorophenyl)-7-(5-piperidin-1-ylpent-2-ynoyl)-5,6,7,8-tetrahydropyrido [4′,3′:4,5]thieno[2,3-d]pyrimidin-4-amine] |
| < 0.2 µM | 0.2 to 1 µM | 0.2 to 1 µM | C=C(CN(CC)CC)C(=O)N1CCc2c(sc3ncnc(Nc4ccc(OCc5ccccn5)c(Cl)c4)c23)C1 [Example 143, N-[3-chloro-4-(pyridin-2-ylmethoxy)phenyl]-7-{2-[(diethylamino)methyl]acryloyl}-5,6,7,8-tetrahydropyrido[4′,3′:4,5]thieno[2,3-d]pyrimidin-4-amine] |
| 0.2 to 5 µM | 1 to 10 µM | 1 to 10 µM | C=C(CN1CCOCC1)C(=O)N1CCc2c(sc3ncnc(Nc4ccc(F)c(Cl)c4)c23)C1 [Example 145, N-(3-chloro-4-fluorophenyl)-7-[2-(morpholin-4-ylmethyl)acryloyl]-5,6,7,8-tetrahydropyrido [4′,3′:4,5]thieno[2,3-d]pyrimidin-4-amine] |
| < 0.2 µM | 1 to 10 µM | 0.2 to 1 µM | C=C(CN(CC)CC)C(=O)N1CCc2c(sc3ncnc(Nc4ccc(F)c(Cl)c4)c23)C1 [Example 147, N-(3-chloro-4-fluorophenyl)-7-{2-[(diethylamino)methyl]acryloyl}-5,6,7,8-tetrahydropyrido [4′,3′:4,5]thieno[2,3-d]pyrimidin-4-amine] |
| < 0.2 µM | 1 to 10 µM | 1 to 10 µM | C#Cc1cccc(Nc2ncnc3sc4c(c23)CCN(C(=O)C(=C)CN(CC)CC)C4)c1 [Example 148, 7-{2-[(diethylamino)methyl]acryloyl}-N-(3-ethynylphenyl)-5,6,7,8-tetrahydropyrido [4′,3′:4,5]thieno[2,3-d]pyrimidin-4-amine] |
| < 0.2 µM | 0.2 to 1 µM | 0.2 to 1 µM | C=C(CN(CC)CC)C(=O)N1CCc2c(sc3ncnc(Nc4ccc(OCc5cccc(F)c5)c(Cl)c4)c23)C1 [Example 149, N-{3-chloro-4-[(3-fluorobenzyl)oxy]phenyl}-7-{2-[(diethylamino)methyl]acryloyl}-5,6,7,8-tetrahydropyrido [4′,3′:4,5]thieno[2,3-d]pyrimidin-4-amine] |
| 0.2 to 5 µM | 1 to 10 µM | 1 to 10 µM | O=C(/C=C/CCO)N1CCc2c(sc3ncnc(Nc4ccc(F)c(Cl)c4)c23)C1 [Example 151, (3E)-5-{4-[(3-chloro-4-fluorophenyl)amino]-5,8-dihydropyrido [4′,3′:4,5]thieno[2,3-d]pyrimidin-7(6H)-yl}-5-oxopent-3-en-1-ol] |
| < 0.2 µM | 1 to 10 µM | 1 to 10 µM | O=C(/C=C/CCN1CCCC1)N1CCc2c(sc3ncnc(Nc4ccc(F)c(Cl)c4)c23)C1 [Example 152, N-(3-chloro-4-fluorophenyl)-7-[(2E)-5-pyrrolidin-1-ylpent-2-enoyl]-5,6,7,8-tetrahydropyrido [4′,3′:4,5]thieno[2,3-d]pyrimidin-4-amine] |
| < 0.2 µM | 1 to 10 µM | 1 to 10 µM | CN(C)CC/C=C/C(=O)N1CCc2c(sc3ncnc(Nc4ccc(F)c(Cl)c4)c23)C1 [Example 153] |
| < 0.2 µM | 1 to 10 µM | 1 to 10 µM | O=C(/C=C/CCN1CCCCC1)N1CCc2c(sc3ncnc(Nc4ccc(F)c(Cl)c4)c23)C1 [Example 154, N-(3-chloro-4-fluorophenyl)-7-[(2E)-5-piperidin-1-ylpent-2-enoyl]-5,6,7,8-tetrahydropyrido [4′,3′:4,5]thieno[2,3-d]pyrimidin-4-amine] |

Second part, the compound before the results:

| SMILES | IC50 (N87) | IC50 (H1975 cells) | IC50 (A431 cells) |
| --- | --- | --- | --- |
| CCN(C)C/C=C/C(=O)N1CCc2c(sc3ncnc(Nc4ccc5c(ccn5Cc5ccccn5)c4)c23)C1 [Example 127, 7-{(2E)-4-[ethyl(methyl)amino]but-2-enoyl}-N-[l-(pyridin-ylmethyl)1H-indol-5-yl]-5,6,7,8-tetrahydropyrido [4′,3′:4,5]thieno[2,3-d]pyrimidin-4-amine] | < 0.2 µM | 0.2 to 1 µM | 0.2 to 1 µM |
| CN(C/C=C/C(=O)N1CCc2c(sc3ncnc(Nc4ccc5c(cnn5Cc5ccccn5)c4)c23)C1)C(C)(C)C [Example 128, 7-{(2E)-4-[tert-butyl(methyl)amino]but-2-enoyl}-N-[1-(pyridin-2-ylmethyl)-1H-indazol-5-yl]-5,6,7,8-tetrahydropyrido [4′,3′:4,5]thieno[2,3-d]pyrimidin-4-amine] | < 0.2 µM | 0.2 to 1 µM | 0.2 to 1 µM |
| CN(C/C=C/C(=O)N1CCc2c(sc3ncnc(Nc4ccc5c(ccn5Cc5ccccn5)c4)c23)C1)C(C)(C)C [Example 129] | < 0.2 µM | < 0.2 µM | 0.2 to 1 µM |
| O=C(C#CCCN1CCCCC1)N1CCc2c(sc3ncnc(Nc4ccc(OCc5ccccn5)c(Cl)c4)c23)C1 [Example 132, N-[3-chloro-4-(pyridin-2-ylmethoxy)phenyl]-7-(5-piperidin-1-ylpent-2-ynoyl)-5,6,7,8-tetrahydropyrido[4′,3′:4,5]-thieno[2,3-d]pyrimidin-4-amine] | < 0.2 µM | 0.2 to 1 µM | 0.2 to 1 µM |
| C#Cc1cccc(Nc2ncnc3sc4c(c23)CCN(C(=O)C#CCN(C)C)C4)c1 [Example 133, 7-[4-(dimethylamino)but-2-ynoyl]-N-(3-ethynylphenyl)-5,6,7,8-tetrahydropyrido [4′,3′:4,5]thieno[2,3-d]pyrimidin-4-amine] | < 0.2 µM | 0.2 to 1 µM | 0.2 to 1 µM |
| O=C(C#CCN1CCOCC1)N1CCc2c(sc3ncnc(Nc4ccc(OCc5ccccn5)c(Cl)c4)c23)C1 [Example 136, N-[3-chloro-4-(pyridin-2-ylmethoxy)phenyl]-7-(4-morpholin-4-ylbut-2-ynoyl)-5,6,7,8-tetrahydropyrido [4′,3′:4,5]thieno[2,3-d]pyrimidin-4-amine] | < 0.2 µM | 1 to 10 µM | 1 to 10 µM |
| O=C(C#CCN1CCOCC1)N1CCc2c(sc3ncnc(Nc4ccc(OCc5cccc(F)c5)c(Cl)c4)c23)C1 [Example 139, N-{3-chloro-4-[(3-fluorobenzyl)oxy]phenyl}-7-(4-morpholin-4-ylbut-2-ynoyl)-5,6,7,8-tetrahydropyrido [4′,3′:4,5]thieno[2,3-d]pyrimidin-4-amine] | < 0.2 µM | 0.2 to 1 µM | 0.2 to 1 µM |
| C#Cc1cccc(Nc2ncnc3sc4c(c23)CCN(C(=O)C#CCCN2CCCCC2)C4)c1 [Example 141, N-(3-ethynylphenyl)-7-(5-piperidin-1-ylpent-2-ynoyl)-5,6,7,8-tetrahydropyrido [4′,3′:4,5]thieno[2,3-d]pyrimidin-4-amine] | < 0.2 µM | 0.2 to 1 µM | 0.2 to 1 µM |
| O=C(C#CCCN1CCCCC1)N1CCc2c(sc3ncnc(Nc4ccc(OCc5cccc(F)c5)c(Cl)c4)c23)C1 [Example 142, N-{3-chloro-4-[(3-fluorobenzyl)oxy]phenyl}-7-(5-piperidin-1-ylpent-2-ynoyl)-5,6,7,8-tetrahydropyrido [4′,3′:4,5]thieno[2,3-d]pyrimidin-4-amine] | < 0.2 µM | 0.2 to 1 µM | 0.2 to 1 µM |
| C=C(CN1CCOCC1)C(=O)N1CCc2c(sc3ncnc(Nc4ccc(OCc5ccccn5)c(Cl)c4)c23)C1 [Example 144] | < 0.2 µM | 1 to 10 µM | 1 to 10 µM |
| C=C(CN1CCOCC1)C(=O)N1CCc2c(sc3ncnc(Nc4ccc(OCc5cccc(F)c5)c(Cl)c4)c23)C1 [Example 146, N-{3-chloro-4-[(3-fluorobenzyl)oxy]phenyl}-7-[2-(morpholin-4-ylmethyl)acryloyl]-5,6,7,8-tetrahydropyrido [4′,3′:4,5]thieno[2,3-d]pyrimidin-4-amine] | < 0.2 µM | 1 to 10 µM | 1 to 10 µM |
| CN(C)CC/C=C/C(=O)N1CCc2c(sc3ncnc(Nc4ccc(OCc5ccccn5)c(Cl)c4)c23)C1 [Example 150, 1-[4-[3-chloro-4-(pyridin-2-ylmethoxy)-phenylamino]-5,8-dihydro-6H-9-thia-1,3,7-triaza-fluoren-7-yl}-5-dimethylamino-pent-2-en-1-one] | < 0.2 µM | < 0.2 µM | < 0.2 µM |
| CN(C)C/C=C/C(=O)N1CCc2c(sc3ncnc(Nc4cccc(Br)c4)c23)C1 [Example 160, N-(3-bromophenyl)-7-[(2E)-4-(dimethylamino)but-2-enoyl]-5,6,7,8-tetrahydropyrido [4′,3′:4,5]thieno[2,3-d]pyrimidin-4-amine] | < 0.2 µM | < 0.2 µM | < 0.2 µM |
| CN(C)C/C=C/C(=O)N1CCc2c(sc3ncnc(Nc4ccccc4)c23)C1 [Example 161, 7-[(2E)-4-(dimethylamino)but-2-enoyl]-N-phenyl-5,6,7,8-tetrahydropyrido [4′,3′:4,5]thieno[2,3-d]pyrimidin-4-amine] | < 0.2 µM | 0.2 to 1 µM | 0.2 to 1 µM |
